Measurements: US20260027068A1, “METHODS OF ADM[…]-KETAMINE” (Perception Neuroscience, Inc., priority 2022, published 2026)

Assay: Temperature (vital signs)
Conditions: 60 mg
Experimental: The Investigational Medicinal Product (IMP) R(−)-ketamine hydrochloride in sterile water for intravenous injection was investigated as an […] treatment of TRD. The International Union of Pure and Applied Chemistry (IUPAC) name is of the IMP is (2R)-2-(2-chlorophenyl)-2-(methylamino)cyclohexan-1-one. Subjects received the solution at either 30 mg or 60 mg dose, or a placebo. The IMP or placebo was administered on Day 1 as a single IV infusion via an electronic infusion pump over 40 minutes. The duration of study participation for each subject was up to 29 days including a screening period, a 3-day in-clinic visit, and 2 follow-up visits. 101 subjects were enrolled in approximately 20 study centers in the EU and the US.
Tympanic or temporal temperature, heart rate, blood pressure (SBP/DBP), respiratory rate, and SpO2 were assessed. Blood pressure and pulse measurements will be assessed with a completely automated device while the subject is supine or semi-supine. Manual techniques will be used only if an automated device is not available. Blood pressure and pulse measurements should be preceded by at least 5 minutes of rest for the subject in a quiet setting without distractions (e.g., television, cell phones). An abnormal blood pressure value at screening may be repeated once after 5 minutes of relaxation to determine the subject's eligibility. Blood pressure was recorded using the same arm and position (supine or semi-supine) throughout the study, where possible. Vital signs (to be taken before blood collection for laboratory tests) consisted of 1 pulse and 3 blood pressure measurements (3 consecutive blood pressure readings will be recorded at intervals of at least 1 minute). The average of the 3 blood pressure readings was recorded in the CRF. A pulse oximeter was used to measure peripheral capillary oxygen saturation (SpO2) continuously from pre-dose until 4-hours post-dose. A pulse oximeter was clipped onto the finger or foot of the subject, and light will be sent through the finger or foot and measured on the other side.
In these tables, baseline value is defined as the last non-missing value prior to study drug administration.

## CN[C@@]1(c2ccccc2Cl)CCCCC1=O.Cl [R(−)-ketamine, (2R)-2-(2-chlorophenyl)-2-(methylamino)cyclohexan-1-one]
Day 1, 15 minutes
  Temperature, Max: 36.9 °C
  Temperature, Mean: 36.58 °C
  Temperature, Median: 36.50 °C
  Temperature, Min: 36.4 °C
Day 1, 40 minutes
  Temperature, Max: 36.8 °C
  Temperature, Mean: 36.58 °C
  Temperature, Median: 36.60 °C
  Temperature, Min: 36.3 °C
Day 1, 60 minutes
  Temperature, Max: 36.8 °C
  Temperature, Mean: 36.55 °C
  Temperature, Median: 36.50 °C
  Temperature, Min: 36.4 °C
Day 1, 2 hours
  Temperature, Max: 37.0 °C
  Temperature, Mean: 36.60 °C
  Temperature, Median: 36.60 °C
  Temperature, Min: 36.2 °C
Day 1, 4 hours
  Temperature, Max: 37.0 °C
  Temperature, Mean: 36.60 °C
  Temperature, Median: 36.60 °C
  Temperature, Min: 36.3 °C
Day 1, 6 hours
  Temperature, Max: 37.1 °C
  Temperature, Mean: 36.61 °C
  Temperature, Median: 36.60 °C
  Temperature, Min: 36.1 °C
Day 2 - Discharge
  Temperature, Max: 36.9 °C
  Temperature, Mean: 36.60 °C
  Temperature, Median: 36.60 °C
  Temperature, Min: 36.1 °C
Day 8
  Temperature, Max: 37.2 °C
  Temperature, Mean: 36.55 °C
  Temperature, Median: 36.60 °C
  Temperature, Min: 35.8 °C
Day 15
  Temperature, Max: 37.0 °C
  Temperature, Mean: 36.62 °C
  Temperature, Median: 36.60 °C
  Temperature, Min: 36.3 °C
To Day 1, 15 minutes
  Temperature, Change from Baseline, Max: 0.3 °C
  Temperature, Change from Baseline, Mean: 0.04 °C
  Temperature, Change from Baseline, Median: 0.00 °C
  Temperature, Change from Baseline, Min: −0.2 °C
To Day 1, 40 minutes
  Temperature, Change from Baseline, Max: 0.7 °C
  Temperature, Change from Baseline, Mean: 0.05 °C
  Temperature, Change from Baseline, Median: 0.00 °C
  Temperature, Change from Baseline, Min: −0.4 °C
To Day 1, 60 minutes
  Temperature, Change from Baseline, Max: 0.3 °C
  Temperature, Change from Baseline, Mean: 0.01 °C
  Temperature, Change from Baseline, Median: 0.00 °C
  Temperature, Change from Baseline, Min: −0.3 °C
To Day 1, 2 hours
  Temperature, Change from Baseline, Max: 0.8 °C
  Temperature, Change from Baseline, Mean: 0.07 °C
  Temperature, Change from Baseline, Median: 0.00 °C
  Temperature, Change from Baseline, Min: −0.5 °C
To Day 1, 4 hours
  Temperature, Change from Baseline, Max: 0.9 °C
  Temperature, Change from Baseline, Mean: 0.07 °C
  Temperature, Change from Baseline, Median: 0.00 °C
  Temperature, Change from Baseline, Min: −0.2 °C
To Day 1, 6 hours
  Temperature, Change from Baseline, Max: 1.0 °C
  Temperature, Change from Baseline, Mean: 0.07 °C
  Temperature, Change from Baseline, Median: 0.00 °C
  Temperature, Change from Baseline, Min: −0.4 °C
To Day 2 - Discharge
  Temperature, Change from Baseline, Max: 0.6 °C
  Temperature, Change from Baseline, Mean: 0.07 °C
  Temperature, Change from Baseline, Median: 0.10 °C
  Temperature, Change from Baseline, Min: −0.7 °C
To Day 8
  Temperature, Change from Baseline, Max: 1.2 °C
  Temperature, Change from Baseline, Mean: 0.01 °C
  Temperature, Change from Baseline, Median: 0.00 °C
  Temperature, Change from Baseline, Min: −0.9 °C
To Day 15
  Temperature, Change from Baseline, Max: 1.2 °C
  Temperature, Change from Baseline, Mean: 0.08 °C
  Temperature, Change from Baseline, Median: 0.00 °C
  Temperature, Change from Baseline, Min: −0.5 °C
